This note sets out measurements from US7947695B2, “5-membered annelated heterocyclic pyrimidines as kinase inhibitors” (Janssen Pharmaceutica NV, priority 2005, dated 2011).

Chain of CDK4/cyclinD1 (P11802 whole entry): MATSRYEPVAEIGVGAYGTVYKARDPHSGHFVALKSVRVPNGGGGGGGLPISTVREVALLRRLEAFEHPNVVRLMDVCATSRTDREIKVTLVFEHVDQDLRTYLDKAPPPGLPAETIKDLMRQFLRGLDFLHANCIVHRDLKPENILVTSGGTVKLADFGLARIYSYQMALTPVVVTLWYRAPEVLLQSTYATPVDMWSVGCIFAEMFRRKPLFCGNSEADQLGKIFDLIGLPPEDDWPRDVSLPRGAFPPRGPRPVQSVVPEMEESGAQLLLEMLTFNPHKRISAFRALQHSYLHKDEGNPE
Chain of CDK4/cyclinD1 (P24385 whole entry partner): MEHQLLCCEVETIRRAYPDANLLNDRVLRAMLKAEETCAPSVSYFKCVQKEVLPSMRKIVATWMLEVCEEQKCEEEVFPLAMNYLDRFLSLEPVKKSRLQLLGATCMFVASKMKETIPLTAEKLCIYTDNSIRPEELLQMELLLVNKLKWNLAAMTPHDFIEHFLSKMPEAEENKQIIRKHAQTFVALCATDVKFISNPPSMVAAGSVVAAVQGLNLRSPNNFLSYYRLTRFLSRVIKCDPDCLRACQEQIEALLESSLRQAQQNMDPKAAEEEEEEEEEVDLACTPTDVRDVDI

The first experiment deals with CDK4/cyclinD1 (Homo sapiens, UniProt P11802). The experiment in a line: In vitro filtration assay for CDK4 inhibitory activity (pRb phosphorylation, [33P]-ATP). It counts as biochemical. To be noted: GST-pRb substrate, 1 μM unlabeled ATP, 25° C. 45 minutes, read-out: cdk4 filter (pIC50) (converted). The procedure:
Compounds of the present invention were tested in an in vitro filtration assay assessing CDK4 activity by means of its pRb-phosphorylation activity using [^33P]-ATP as phosphor donor. The radioactive phosphorylated pRb is then captured on filtermats and the incorporated [^33P] quantitated using a phosphorage storage screen.
The CDK4 kinase reaction is performed at 25° C. for 45 minutes in a 96-well microtiterplate. The 25 μl reaction volume contains 50 mM Hepes pH 7.5, 10 mM NaF, 10 mM MgCl2, 1 mM Na3VO4, 1 μM unlabeled ATP, 1 mM DTT, 0.5 μCi AT^33P, 0.76 μg/well GST-pRb, 50 ng CDK4/cyclinD1/well and 0.2% compound in 100% DMSO.
(§1) The reaction is stopped by adding 5 μl of a 3% phosphoric acid solution. 10 μl of the reaction mixture is then spotted onto a Filtermat P30 filter (Wallac) and washed 3 times for 5 min. in 75 mM phosphoric acid and 1 time for 5 min. in methanol prior to drying and quantification on the Typhoon (Amersham) using a phosphorage storage screen.
(§2) For each experiment, controls (containing enzyme (complex) and DMSO without compound), a blank incubation (containing DMSO but no enzyme (complex) or compound) and samples (containing enzyme (complex) and compound dissolved in DMSO) were run in parallel. All compounds tested were dissolved and eventually further diluted in DMSO. […] In each test, the blank value was subtracted from both the control and the sample values. The control sample represented maximal enzyme activity. For each sample, the amount of cpm was expressed as a percentage of the mean cpm value of the controls. When appropriate, IC50-values (concentration of the drug, needed to reduce the enzyme activity to 50% of the control) were computed using linear interpolation between the experimental points just above and below the 50% level. Herein the effects of test compounds are expressed as pIC50 (the negative log value of the IC50-value).
On to `c1cc(N2CCNCC2)ccc1Nc1ncc2cnn(C3CCCCC3)c2n1` [compound 26], for which the IC50 is 15.8 nM.

Regarding `CN1CCN(c2ccc(Nc3ncc4cnn(C5CCOCC5)c4n3)cc2)CC1` [compound 27], the IC50 is 200 nM.

In the case of `c1cc(Nc2ncc3cnn(C4CCCCC4)c3n2)ncc1N1CCOCC1` [compound 28], the IC50 is 1000 nM.

Turning to `CC(C)(C)OC(=O)N1CCN(c2ccc(Nc3ncc4cnn(C5CCCCC5)c4n3)nc2)CC1` [compound 29], the IC50 is 6310 nM.

As to `c1cc(Nc2ncc3cnn(C4CCCCC4)c3n2)ncc1N1CCNCC1` [compound 30], the IC50 was 50.1 nM.

For `CC(C)(O)C(=O)N1CCN(c2ccc(Nc3ncc4cnn(C5CCCCC5)c4n3)cc2)CC1` [compound 31], the IC50 is 31.6 nM.

On to `c1cc(Nc2ncc3cnn(C4CCCCC4)c3n2)ccc1CN1CCOCC1` [compound 33], for which the IC50 is 631 nM.

`NS(=O)(=O)N1CCN(Cc2ccc(Nc3ncc4cnn(C5CCCCC5)c4n3)cc2)CC1` [compound 34]: the IC50 is 63.1 nM.

Take `c1ccc(N2CCN(Cc3ccc(Nc4ncc5cnn(C6CCCCC6)c5n4)cc3)CC2)nc1` [compound 35]: the IC50 was 100 nM.

Take `CN1CCN(Cc2ccc(Nc3ncc4cnn([C@H]5C[C@@H]6CC[C@H]5C6)c4n3)cc2)CC1` [compound 36]: the IC50 is 100 nM.

For `CC(C)(O)CN1CCN(Cc2ccc(Nc3ncc4cnn(C5CCCCC5)c4n3)cc2)CC1` [compound 38], the IC50 is 12.6 nM.

Consider `COCCCC(=O)N1CCN(Cc2ccc(Nc3ncc4cnn(C5CCCCC5)c4n3)cc2)CC1` [compound 45], for which the IC50 is 398 nM.

On to `CN1CCN(Cc2ccc(Nc3ncc4cnn(C5CCOCC5)c4n3)cc2)CC1` [compound 49], for which the IC50 was 1260 nM.

`CC(C)(C)OC(=O)N(c1ccc(CNC2CCOCC2)cc1)c1ncc2cnn(C3CCCCC3)c2n1` [compound 66]: the IC50 is 7940 nM.

On to `COCCCN1CCN(c2ccc(Nc3ncc4c(n3)N(C3CCCCC3)C(=O)C4)cc2)CC1` [compound 90], for which the IC50 is 316 nM.

In the case of `CC(C)(O)CN1CCC(NC(=O)c2ccc(Nc3ncc4cnn(C5CCCCC5)c4n3)cc2)CC1` [compound 98], the IC50 was 398 nM.

In the next experiment the target is T1, AURORA A (Homo sapiens, UniProt O14965).
T1 sequence (O14965 1-403): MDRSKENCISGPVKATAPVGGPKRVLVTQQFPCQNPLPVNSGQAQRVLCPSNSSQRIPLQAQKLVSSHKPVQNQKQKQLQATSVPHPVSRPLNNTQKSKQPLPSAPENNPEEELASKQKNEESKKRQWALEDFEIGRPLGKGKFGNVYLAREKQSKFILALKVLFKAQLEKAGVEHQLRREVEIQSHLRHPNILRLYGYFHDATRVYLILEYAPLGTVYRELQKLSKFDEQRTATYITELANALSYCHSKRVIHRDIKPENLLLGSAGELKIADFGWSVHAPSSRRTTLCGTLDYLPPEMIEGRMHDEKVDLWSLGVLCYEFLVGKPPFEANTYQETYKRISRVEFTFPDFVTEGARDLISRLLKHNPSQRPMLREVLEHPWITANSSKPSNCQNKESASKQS
The experiment in a line: In vitro filtration assay for AURORA A inhibitory activity. It counts as biochemical. To be noted: Kemptide substrate, 1 μM unlabeled ATP, 25° C. 40 minutes, read-out: Aurora A see C.2 (pIC50) (converted). The procedure:
Compounds of the present invention were tested in an in vitro filtration assay assessing AURORA A activity by means of its substrate-phosphorylation activity using [^33P]-ATP as phosphor donor. The radioactive phosphorylated substrate is then captured on filtermats and the incorporated [^33P] quantitated using a phosphorage storage screen.
The Aurora-A kinase reaction is performed at 25° C. for 40 minutes in a 96-well microtiterplate. The 25 μl reaction volume contains 12 mM MOPS pH 7, 0.4 mM EDTA, 0.002% Brij35, 1% glycerol, 0.02% beta-mercapto-ethanol, 0.2 mg/ml BSA, 1 μM unlabeled ATP, […] [^33P]-ATP, 200 μM Kemptide, 3 ng Aurora A/well and 0.2% compound in 100% DMSO.
as §1, §2
With `c1cc(N2CCNCC2)ccc1Nc1ncc2cnn(C3CCCCC3)c2n1` [compound 26], the IC50 is 251 nM.

On to `CN1CCN(c2ccc(Nc3ncc4cnn(C5CCOCC5)c4n3)cc2)CC1` [compound 27], for which the IC50 was 501 nM.

As for `c1cc(Nc2ncc3cnn(C4CCCCC4)c3n2)ncc1N1CCOCC1` [compound 28], the IC50 is 2510 nM.

On to `CC(C)(C)OC(=O)N1CCN(c2ccc(Nc3ncc4cnn(C5CCCCC5)c4n3)nc2)CC1` [compound 29], for which the IC50 was above 10000 nM.

Consider `c1cc(Nc2ncc3cnn(C4CCCCC4)c3n2)ncc1N1CCNCC1` [compound 30], for which the IC50 was above 10000 nM.

Turning to `c1cc(Nc2ncc3cnn(C4CCCCC4)c3n2)ccc1CN1CCOCC1` [compound 33], the IC50 was 15.8 nM.

Take `NS(=O)(=O)N1CCN(Cc2ccc(Nc3ncc4cnn(C5CCCCC5)c4n3)cc2)CC1` [compound 34]: the IC50 is 158 nM.

Turning to `c1ccc(N2CCN(Cc3ccc(Nc4ncc5cnn(C6CCCCC6)c5n4)cc3)CC2)nc1` [compound 35], the IC50 is 251 nM.

As for `CN1CCN(Cc2ccc(Nc3ncc4cnn([C@H]5C[C@@H]6CC[C@H]5C6)c4n3)cc2)CC1` [compound 36], the IC50 was 251 nM.

With `CC(C)(O)CN1CCN(Cc2ccc(Nc3ncc4cnn(C5CCCCC5)c4n3)cc2)CC1` [compound 38], the IC50 was 1000 nM.

For `COCCCC(=O)N1CCN(Cc2ccc(Nc3ncc4cnn(C5CCCCC5)c4n3)cc2)CC1` [compound 45], the IC50 was 200 nM.

In the case of `CN1CCN(Cc2ccc(Nc3ncc4cnn(C5CCOCC5)c4n3)cc2)CC1` [compound 49], the IC50 is 1260 nM.

Regarding `COCCCN1CCN(c2ccc(Nc3ncc4c(n3)N(C3CCCCC3)C(=O)C4)cc2)CC1` [compound 90], the IC50 is 1580 nM.

Consider `CC(C)(O)CN1CCC(NC(=O)c2ccc(Nc3ncc4cnn(C5CCCCC5)c4n3)cc2)CC1` [compound 98], for which the IC50 was 316 nM.

Another experiment deals with AURORA B (Homo sapiens, UniProt Q96GD4). The experiment in a line: In vitro filtration assay for AURORA B inhibitory activity. It counts as biochemical. To be noted: peptide (C(LRRWSLG)×4), 1 μM unlabeled ATP, 25° C. 40 minutes, read-out: Aurora B see C.3 (pIC50) (converted). The procedure: Compounds of the present invention were tested in an in vitro filtration assay assessing AURORA B activity by means of its substrate-phosphorylation activity using [^33P]-ATP as phosphor donor. The radioactive phosphorylated substrate is then captured on filtermats and the incorporated [^33P] quantitated using a phosphorage storage screen.
Chain of AURORA B (Q96GD4 whole entry): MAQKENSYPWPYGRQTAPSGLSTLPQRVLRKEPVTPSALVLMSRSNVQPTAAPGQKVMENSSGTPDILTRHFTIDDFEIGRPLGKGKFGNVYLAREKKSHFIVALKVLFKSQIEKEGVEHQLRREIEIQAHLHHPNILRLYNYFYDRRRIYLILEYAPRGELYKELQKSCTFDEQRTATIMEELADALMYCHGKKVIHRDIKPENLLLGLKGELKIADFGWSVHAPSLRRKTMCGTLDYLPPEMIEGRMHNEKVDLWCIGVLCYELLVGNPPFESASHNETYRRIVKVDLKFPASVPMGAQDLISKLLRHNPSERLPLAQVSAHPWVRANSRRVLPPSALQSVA
The Aurora-B kinase reaction is performed at 25° C. for 40 minutes in a 96-well microtiterplate. The 25 μl reaction volume contains 60 mM Hepes pH 7.5, 3 mM MgCl2, 3 mM MnCl2, 3 μM Na3VO4, 50 μg/ml PEG20000, 1 μM unlabeled ATP, 1 mM DTT, 0.2 μCi AT^33P, 0.25 μg/well peptide (C(LRRWSLG)×4),100 ng Aurora-B/well and 0.2% compound in 100% DMSO. The reaction is stopped by adding 5 μl of a 3% phosphoric acid solution. 10 μl of the reaction mixture is then spotted onto a Filtermat P30 filter (Wallac) and washed 3 times for 5 min. in 75 mM phosphoric acid and 1 time for 5 min. in methanol prior to drying and quantification on the Typhoon (Amersham) using a phosphorage storage screen.
as §2
Consider `c1cc(N2CCNCC2)ccc1Nc1ncc2cnn(C3CCCCC3)c2n1` [compound 26], for which the IC50 is 1260 nM.

In the case of `CN1CCN(c2ccc(Nc3ncc4cnn(C5CCOCC5)c4n3)cc2)CC1` [compound 27], the IC50 was above 10000 nM.

As to `c1cc(Nc2ncc3cnn(C4CCCCC4)c3n2)ncc1N1CCOCC1` [compound 28], the IC50 is above 10000 nM.

For the molecule `CC(C)(C)OC(=O)N1CCN(c2ccc(Nc3ncc4cnn(C5CCCCC5)c4n3)nc2)CC1` [compound 29], the IC50 was above 10000 nM.

Consider `c1cc(Nc2ncc3cnn(C4CCCCC4)c3n2)ncc1N1CCNCC1` [compound 30], for which the IC50 is above 10000 nM.

On to `c1cc(Nc2ncc3cnn(C4CCCCC4)c3n2)ccc1CN1CCOCC1` [compound 33], for which the IC50 was 7940 nM.

Turning to `NS(=O)(=O)N1CCN(Cc2ccc(Nc3ncc4cnn(C5CCCCC5)c4n3)cc2)CC1` [compound 34], the IC50 is above 10000 nM.

Consider `c1ccc(N2CCN(Cc3ccc(Nc4ncc5cnn(C6CCCCC6)c5n4)cc3)CC2)nc1` [compound 35], for which the IC50 was above 10000 nM.

With `CN1CCN(Cc2ccc(Nc3ncc4cnn([C@H]5C[C@@H]6CC[C@H]5C6)c4n3)cc2)CC1` [compound 36], the IC50 is above 10000 nM.

Consider `CC(C)(O)CN1CCN(Cc2ccc(Nc3ncc4cnn(C5CCCCC5)c4n3)cc2)CC1` [compound 38], for which the IC50 was 2000 nM.

Regarding `CC(C)(C)OC(=O)N(c1ccc(CNC2CCOCC2)cc1)c1ncc2cnn(C3CCCCC3)c2n1` [compound 66], the IC50 was above 10000 nM.
